Key:
Format in all cases: cell-based
TNFα = experiment: Cytokine profiling assay in human PBMCs, TNFα detection (MSD); conditions: PBMC; cryopreserved human PBMCs, 24 hours at 37° C., half-maximal effect on normalized percent activation; read-out: TNFa AC50
Source text: (§1) Cryopreserved human PBMCs isolated from healthy donors were purchased from StemCell Technologies (Vancouver, Canada). Cell culture medium used was RPMI with L-Glutamine (Mediatech, Manassas, Va.) supplemented with 10% fetal bovine serum (Hyclone, GE Healthcare, Logan, Utah) and Penicillin-Streptomycin (Mediatech). Human TNFα, IL12p40, and IFNα2a 384-well Assay capture plates, standards, buffers and processing reagents were obtained from MesoScale Discovery Technologies (MSD; Rockville, Md.).
(§2) Cryopreserved human PBMCs (1×10e8 cells/ml) were thawed at 37° C. and resuspended in 25 mL warm cell culture medium. The cells were pelleted at 200×g (Beckman Avanti J-E) for 5 min and resuspended in 20 mL of fresh culture media. Cells were counted using a Cellometer (Nexcelcom Bioscience), adjusted to 2×10e6 cells, and incubated for 2 hours in an incubator set at 37° C., 5% CO2 to recover from cryopreservation. Compounds were serially diluted in DMSO at half-log steps to generate a 10-point dose range. Using a Bravo pipette equipped with a 384 well head (Agilent), 0.4 μL of compound was transferred to each well of a 384 well black, clear bottom plate (Greiner Bio-One, Germany) containing 30 μL of cell culture medium. Recovered PBMCs were then dispensed into the assay plate at 50 μL per well (100 k cells/well) using the MicroFlow multichannel dispenser (Biotek). Final DMSO concentration was 0.5%. DMSO was used as the negative control. The plates were incubated for 24 hours at 37° C. PBMCs in the assay plate were pelleted by centrifugation (Beckman Avanti J-E) at 200×g for 5 min.
(§3) Using a Biomek FX 384 well pipetting station (Beckman), conditioned culture medium (CCM) from the assay plate was transferred to MSD capture plates customized for each cytokine. For IFNα and IL12-p40 detection, […], of CCM were added directly to each capture plate, respectively. For TNFα detection, CCM was diluted 1:9 in fresh culture medium, and […], of diluted CCM was used. Serially diluted calibration standards for each cytokine were used to generate standard curves and establish assay linearity. The plates were sealed and incubated overnight at 4° C. in a plate shaker (Titer Plate) set at 200 rpm. On the following day, antibodies specific for each cytokine were diluted 1:50 in MSD Diluent 100 antibody dilution buffer. Diluted antibodies were added to corresponding capture plates at 10 μL/well, and incubated at RT for 1-2 hrs in the shaker. The plates were washed with PBST buffer (3×, 60 μl/well) using a Biotek Multiflow plate washer. MSD Read Buffer diluted to 2× in deionized water and 35 μL/well was added via Biomek FX instrument. The plates were read immediately in a MSD6000 reader. Data were normalized to positive and negative controls in each assay plate. AC50 values represent compound concentrations at half-maximal effect based on normalized percent activation and calculated by non-linear regression using Pipeline Pilot software (Accelrys, San Diego, Calif.).

IL12p40 = experiment: Cytokine profiling assay in human PBMCs, IL12p40 detection (MSD); conditions: PBMC; cryopreserved human PBMCs, 24 hours at 37° C., half-maximal effect on normalized percent activation
Source text: as §1, §2, §3

IFNα = experiment: Cytokine profiling assay in human PBMCs, IFNα detection (MSD); conditions: PBMC; cryopreserved human PBMCs, 24 hours at 37° C., half-maximal effect on normalized percent activation; read-out: IFNa AC50
Source text: as §1, §2, §3

SMILES: CCCC[C@](C)(CNC(C)=O)Nc1nc(N)nc2ccccc12 [Example 1, (R)—N-(2-((2-aminoquinazolin-4-yl)amino)-2-methylhexyl)acetamide]
- AC50 (TNFα): 63 nM
- AC50 (IL12p40): 52.2 nM
- AC50 (IFNα): > 50000 nM

SMILES: CCCC[C@](C)(CNC(C)=O)Nc1nc(N)nc2cc(F)ccc12 [Example 2, (R)—N-(2-((2-amino-7-fluoroquinazolin-4-yl)amino)-2-methylhexyl)acetamide]
- AC50 (TNFα): 40.9 nM
- AC50 (IL12p40): 8.83 nM
- AC50 (IFNα): > 50000 nM

SMILES: CCCC[C@](C)(CNC(C)=O)Nc1nc(N)nc2cc(F)c(F)cc12 [Example 3, (R)—N-(2-((2-amino-6,7-difluoroquinazolin-4-yl)amino)-2-methylhexyl)acetamide]
- AC50 (TNFα): 812 nM
- AC50 (IL12p40): 703 nM
- AC50 (IFNα): > 50000 nM

SMILES: CCCC[C@](C)(CNC(C)=O)Nc1nc(N)nc2cnccc12 [Example 4, (R)—N-(2-((2-aminopyrido[3,4-d]pyrimidin-4-yl)amino)-2-methylhexyl)acetamide]
- AC50 (TNFα): 110 nM
- AC50 (IL12p40): 132 nM
- AC50 (IFNα): > 50000 nM

SMILES: CCCC[C@](C)(CNC(C)=O)Nc1nc(N)nc2ncccc12 [Example 5, (R)—N-(2-((2-aminopyrido[2,3-d]pyrimidin-4-yl)amino)-2-methylhexyl)acetamide]
- AC50 (TNFα): 543 nM
- AC50 (IL12p40): 364 nM
- AC50 (IFNα): > 50000 nM

SMILES: CCCC[C@](C)(CNC(C)=O)Nc1nc(N)nc2c1CCCC2 [Example 6, (R)—N-(2-((2-amino-5,6,7,8-tetrahydroquinazolin-4-yl)amino)-2-methylhexyl)acetamide]
- AC50 (TNFα): 10200 nM
- AC50 (IL12p40): 9580 nM
- AC50 (IFNα): > 50000 nM

SMILES: CCCC[C@](C)(CNC(C)=O)Nc1nc(N)nc2c1CN(C(C)=O)CC2 [Example 7, (R)—N-(2-((6-acetyl-2-amino-5,6,7,8-tetrahydropyrido[4,3-d]pyrimidin-4-yl)amino)-2-methylhexyl)acetamide]
- AC50 (TNFα): 2500 nM
- AC50 (IL12p40): 2320 nM
- AC50 (IFNα): > 50000 nM

SMILES: CCCC[C@](C)(CNC(C)=O)Nc1nc(N)nc2c1CCN(C(C)=O)C2 [Example 8, (R)—N-(2-((7-acetyl-2-amino-5,6,7,8-tetrahydropyrido[3,4-d]pyrimidin-4-yl)amino)-2-methylhexyl)acetamide]
- AC50 (TNFα): 4610 nM
- AC50 (IL12p40): 3630 nM
- AC50 (IFNα): > 50000 nM

SMILES: CCCC[C@](C)(CNC(C)=O)Nc1nc(N)nc2ccsc12 [Example 9]
- AC50 (TNFα): 1100 nM
- AC50 (IL12p40): 855 nM
- AC50 (IFNα): > 50000 nM

SMILES: CCCC[C@H](CNC(C)=O)Nc1nc(N)nc2ccccc12 [Example 10, (R)—N-(2-((2-aminoquinazolin-4-yl)amino)hexyl)acetamide]
- AC50 (TNFα): 1670 nM
- AC50 (IL12p40): 1320 nM
- AC50 (IFNα): > 50000 nM

SMILES: CCCC[C@H](CNC(C)=O)Nc1nc(N)nc2cc(F)ccc12 [Example 11, (R)—N-(2-((2-amino-7-fluoroquinazolin-4-yl)amino)hexyl)acetamide]
- AC50 (TNFα): 561 nM
- AC50 (IL12p40): 433 nM
- AC50 (IFNα): > 50000 nM

SMILES: CCCC[C@H](CNC(C)=O)Nc1nc(N)nc2cc(F)c(F)cc12 [Example 12, (R)—N-(2-((2-amino-6,7-difluoroquinazolin-4-yl)amino)hexyl)acetamide]
- AC50 (TNFα): 10200 nM
- AC50 (IL12p40): 12000 nM
- AC50 (IFNα): > 50000 nM

SMILES: CCCC[C@H](CNC(C)=O)Nc1nc(N)nc2ccsc12 [Example 13]
- AC50 (TNFα): 9520 nM
- AC50 (IL12p40): 8290 nM
- AC50 (IFNα): > 50000 nM

SMILES: CCCC[C@](C)(CNC(C)=O)Nc1nc(N)nc2nccnc12 [Example 14, (R)—N-(2-((2-aminopteridin-4-yl)amino)-2-methylhexyl)acetamide]
- AC50 (TNFα): 1910 nM
- AC50 (IL12p40): 1900 nM
- AC50 (IFNα): > 50000 nM
